Measured values: patent publication US8791163B2 (McGill University, priority 2006, dated 2014)

Legend:
[1] = tested on: Adult Sprague Dawley rats; test: Elevated plus maze (EPM); assay type: in vivo, rat; conditions: melatonin 50 mg/kg
Procedure: The maze is comprised of two open arms (50×10 cm) and two closed arms (50×10×40 cm) that extend from a common central platform (10×10 cm). The apparatus, made of wood (painted black) was elevated to a height of 80 cm above floor level. The closed arms are located opposite one another. Behavior is recorded over a period of 5 min using a video camera positioned directly above the maze and rated by an observer blind to drug conditions. The major measure of interest is the amount of time spent in the open arms. As an index of general activity and distribution, the total number of entries into both open and closed arms was also recorded. […] In order to increase the sensitivity of this test to anxiolytic activity, tests are carried out under normal room illumination (25 W bulb).

[2] = target: high-affinity MLT receptors; conditions: read-out: Ki, high-affinity MLT receptors; cited from earlier work
[3] = target: T1, cloned human MT1 receptors (Homo sapiens, UniProt P48039); test: 2-[125I]iodomelatonin competition binding, human MT1 in NIH3T3 cells; conditions: calculated from IC50 by Cheng-Prusoff, mean of at least three determinations
T1 construct: expressed in transfected cells
Procedure: (§1) Membranes were incubated for 90 min at 37° C. in binding buffer (Tris/HCl 50 mM, pH 7.4). The final membrane concentration was 5-10 μg of protein per tube. […] The pKi values are the mean of at least three independent determinations performed in duplicate. To define the functional activity of the compounds of Formula (I) at the MT1 and MT2 receptor subtypes, [^35S]GTPγS binding assays in NIH3T3 cells expressing human-cloned MT1 or MT2 receptors were performed. The amount of bound [^35S]GTPγS is proportional to the level of analogue-induced G-protein activation and is related to the intrinsic activity of the compound (i.e. a compound of Formula (I)) under study. […] Nonspecific binding was assessed using non-radiolabeled GTPγS (10 μM). […] Basal stimulation is the amount of [^35S]GTPγS specifically bound in the absence of the compounds of Formula (I) and was taken as 100%. […] All of the measurements were performed in triplicate.

[4] = target: T2, cloned human MT2 receptors (Homo sapiens, UniProt P49286); test: 2-[125I]iodomelatonin competition binding, human MT2 in NIH3T3 cells; conditions: human MT2 in NIH3T3 cells; calculated from IC50 by Cheng-Prusoff; mean of at least three determinations
T2 construct: expressed in transfected cells
T2 sequence (P49286 1-362): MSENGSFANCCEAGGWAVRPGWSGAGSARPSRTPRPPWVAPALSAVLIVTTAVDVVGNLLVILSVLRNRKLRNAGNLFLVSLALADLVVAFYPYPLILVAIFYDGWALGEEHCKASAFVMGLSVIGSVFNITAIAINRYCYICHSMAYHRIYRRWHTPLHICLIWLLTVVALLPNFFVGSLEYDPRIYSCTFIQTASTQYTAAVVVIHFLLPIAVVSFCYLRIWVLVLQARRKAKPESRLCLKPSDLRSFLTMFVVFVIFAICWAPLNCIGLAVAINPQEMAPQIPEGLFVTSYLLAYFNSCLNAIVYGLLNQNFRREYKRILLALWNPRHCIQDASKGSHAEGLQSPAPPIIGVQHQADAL
Procedure: as §1

[5] = target: T1, cloned human MT1 receptors; test: [35S]GTPγS binding assay, NIH3T3 cells expressing human MT1; assay type: biochemical; for MT1 Activity: key: A = agonist; PA = partial agonist; ANT = antagonist; IA = Inverse agonist
Procedure: as §1

[6] = target: T2, cloned human MT2 receptors; test: [35S]GTPγS binding assay, NIH3T3 cells expressing human MT2; assay type: biochemical; for MT2 Activity: key: A = agonist; PA = partial agonist; ANT = antagonist; IA = Inverse agonist
Procedure: as §1

[7] = maximal net effect relative to MLT

T1 sequence (P48039 whole entry): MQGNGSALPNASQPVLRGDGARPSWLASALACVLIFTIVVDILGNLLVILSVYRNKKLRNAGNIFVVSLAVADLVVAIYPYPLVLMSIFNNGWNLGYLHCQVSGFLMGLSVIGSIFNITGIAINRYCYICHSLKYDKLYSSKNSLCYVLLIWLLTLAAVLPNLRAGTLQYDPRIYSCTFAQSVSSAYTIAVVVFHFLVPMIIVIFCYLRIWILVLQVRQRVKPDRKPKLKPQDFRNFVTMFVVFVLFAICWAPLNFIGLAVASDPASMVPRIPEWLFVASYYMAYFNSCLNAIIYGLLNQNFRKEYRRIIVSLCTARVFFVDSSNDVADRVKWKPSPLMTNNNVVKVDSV

SMILES | Head Dips [1] | Percentage of time in Closed Arms [1] | Percentage of time in Open Arms [1] | Ki [2] | MT1 pKi [3] | MT2 pKi [4] | MT1 Activity [5] | MT1 IAr ± SEM (relative intrinsic activity) [5, 7] | MT2 Activity [6] | MT2 IAr ± SEM (relative intrinsic activity) [6, 7] | melting point
COc1ccc2[nH]cc(CCNC(C)=O)c2c1 [MLT, N-acetyl-5-methoxytryptamine, reference compound] | 7.17 ± 0.89 | 73.33 ± 3.02 (P = 0.001) % | 26.67 ± 3.0 (P = 0.001) % | ~0.1 nM |  |  |  |  |  |  | 
COc1ccc(N(CCNC(C)=O)c2ccccc2)cc1 [5e, N-{-2-[(4-Methoxyphenyl)-phenylamino]ethyl}acetamide] |  |  |  |  | 6.11 ± 0.12 | 7.56 ± 0.10 | ANT | 0.02 ± 0.01 | ANT | 0.06 ± 0.03 | 102 to 104 °C
